Experiments:
[1] = molecular target: T1, HCV NS3-NS4A protease (Hepatitis C virus genotype 1a, UniProt P27958); test: HCV Protease Assay (SensoLyte 620 HCV Protease Assay kit); type: biochemical; details: 1.2 nM HCV NS3-NS4A protease, 60 min, room temperature
T1 construct: HCV NS3-NS4A protease, which was obtained according to Taremi et al; made in house
Experimental: Measurement of the inhibitory effect of compounds on HCV protease activity was performed with the SensoLyte™ 620 HCV Protease Assay kit from AnaSpec, Inc. (San Jose, Calif.) under conditions described by the supplier using 1.2 nM HCV NS3-NS4A protease, which was obtained according to Taremi et al. (Protein Science, 1998, 7, 2143-2149). The compounds were tested at a variety of concentrations in assay buffer containing a final DMSO concentration of 5%. Reactions were allowed to proceed for 60 min at room temperature and fluorescence measurements were recorded with a Tecan Infinity Spectrofluorimeter. The IC50 values were determined from the percent inhibition versus concentration data using a sigmoidal non-linear regression analysis based on four parameters with Tecan Magellan software.

[2] = molecular target: T2, HCV NS3-4A Protease Genotype 1a (Hepatitis C virus genotype 1a, UniProt P27958); test: HCV protease assay, recombinant NS3-4A genotype 1a; type: biochemical; details: mean ± SD, 3 experiments
T2 construct: recombinant HCV NS3-4A proteases
Experimental: (§1) The compounds were tested at a variety of concentrations in assay buffer containing a final DMSO concentration of 5%. Reactions were allowed to proceed for 60 min at room temperature and fluorescence measurements were recorded with a Tecan Infinity Spectrofluorimeter. The IC50 values were determined from the percent inhibition versus concentration data using a sigmoidal non-linear regression analysis based on four parameters with Tecan Magellan software.
(§2) Compound 52 was tested against genotypes 1a, 1b, 2a, 3a, and 4a of recombinant HCV NS3-4A proteases, along with other cellular proteases.

[3] = molecular target: T3, HCV NS3-4A Protease Genotype 2a (Hepatitis C virus genotype 2a, UniProt Q99IB8); test: HCV protease assay, recombinant NS3-4A genotype 2a; type: biochemical; details: mean ± SD, 3 experiments
T3 construct: recombinant HCV NS3-4A proteases
Experimental: as §1, §2

[4] = Cytotoxicity in parallel, colorimetric proliferation assay, 1a replicon cells; type: cell-based; details: human, replicon cells (genotype 1a)
[5] = system: genotype 1b replicon cells; test: Selection of drug-resistant genotype 1b replicon cell lines; type: cell-based, HCV; details: all eight selected genotype 1b cell lines
Experimental: (§3) Replicon cells (genotype 1a or 1b) were treated with various concentrations of compound 52 in the presence of G418. Treatment-emergent genotypic changes were identified by population sequencing of NS3 (both protease and helicase regions). The activity of compound 52 and other compounds was evaluated by NS5A western blot after selection or luciferase assay during and after selection.
(§4) Eight drug-resistance replicon cell lines were created by long-term culture of genotype 1b replicon cells with 10 or 25 nM of compound 52. NS3 (AAs 1-631) was sequenced at each passage.

[6] = system: Zluc cell line (genotype 1b replicon with luciferase, unselected); test: Extent of resistance after selection, luciferase assay, Zluc; type: cell-based, HCV; details: selecting conc. 0 nM, EC50 resistant / EC50 wild-type
Experimental: as §3

[7] = system: ZlucB cell line (genotype 1b replicon selected with 25 nM compound 52, D168V); test: Extent of resistance after selection, luciferase assay, ZlucB; type: cell-based, HCV; details: selecting conc. 25 nM, EC50 resistant / EC50 wild-type
Experimental: as §3, §4

[8] = system: C-1a cell line (genotype 1a replicon selected with 25 nM, D168A); test: Extent of resistance after selection, C-1a; type: cell-based, HCV; details: selecting conc. 25 nM
Experimental: as §3

[9] = system: D-1a cell line (genotype 1a replicon selected with 25 nM, D168A); test: Extent of resistance after selection, D-1a; type: cell-based, HCV; details: selecting conc. 25 nM
Experimental: as §3

[10] = molecular target: T4, human CYP450 2D6 (Homo sapiens, UniProt P10635); test: CYP450 inhibition assay, 2D6; type: in vitro ADME
T4 construct: purchased BD Bioscience
Experimental: Compound 52 was incubated with human CYP450 cDNA-expressed isoenzymes according to the protocol (BD Bioscience). For CYP2C9, a luminogenic substrate was used with the P450-Glo™ kit. In addition, the effect of the compound on CYP2C9-mediated diclofenac metabolism was measured by LC-UV. The potential inhibitory effect of the compound on human UGT1A1 was examined using human liver microsomes and bilirubin as substrate. The metabolites (mono- and di-glucuronidated bilirubin) were measured by LC-UV.

[11] = system: cardiovascular and respiratory systems of monkeys; type: in vivo, cynomolgus monkey; details: oral doses up to 250 mg/kg
Text: One in vitro GLP safety pharmacology study evaluated the effects of compound 52 on hERG channel currents in voltage-clamped human embryonic kidney cells (HEK293) stably expressing the human ether-à-go-go-related gene (hERG) channel. Four in vivo GLP safety pharmacology studies evaluated the potential effects of the compound on the cardiovascular and respiratory systems in the cynomolgus monkey and on the central nervous, renal, and gastrointestinal systems in the CD-1 mouse at single oral doses up to 250 mg/kg of compound 52.

In the case of COc1ccc2c(O[C@H]3CCN4C(=O)N(C)CCCC/C=C\[C@@H]5C[C@@]5(C(=O)NS(=O)(=O)C5(C)CC5)NC(=O)[C@@H]4C3)cc(-c3nc(C(F)(F)F)cs3)nc2c1C [Compound 52, 1-methyl-cyclopropanesulfonic acid{(Z)-(1S,4R,6S,18S)-18-[7-methoxy-8-methyl-2-(4-trifluoromethyl-thiazol-2-yl)-quinolin-4-yloxy]-13-methyl-2,14-dioxo-3,13,15-triaza-tricyclo[13.4.0.0*4,6*]nonadec-7-ene-4-carbonyl}amide], the IC50 [1] is reported as < 1000 nM, the IC50 [2] is reported as 1.1 ± 0.1 nM and the IC50 [3] is reported as 1.9 ± 0.5 nM. For the same molecule, the CC50 at 5 days [4] was > 77 µM, the “fold-change values (resistance)” value [5] was “no less than 250” and the Fold-Change [6] was 1. For the same molecule, the Fold-Change [7] was 1037 ± 144, the Fold-Change [8] was 900 ± 64 and the Fold-Change [9] was >2750. For the same molecule, the IC50 [10] was ≥ 10 µM and the “effects on the cardiovascular and respiratory systems” value [11] was “no effects”.

Reference: patent US8993595B2, “Macrocyclic serine protease inhibitors” (priority 2009, dated 2015)
